The source of these data is patent US7435747B2, “Guanidine and amidine derivatives as factor Xa inhibitors” (Sanofi-Aventis Deutschland GmbH, priority 2000, dated 2008).

SMILES strings stand for the structures.

T1 sequence (P00742 235-488 limits assumed): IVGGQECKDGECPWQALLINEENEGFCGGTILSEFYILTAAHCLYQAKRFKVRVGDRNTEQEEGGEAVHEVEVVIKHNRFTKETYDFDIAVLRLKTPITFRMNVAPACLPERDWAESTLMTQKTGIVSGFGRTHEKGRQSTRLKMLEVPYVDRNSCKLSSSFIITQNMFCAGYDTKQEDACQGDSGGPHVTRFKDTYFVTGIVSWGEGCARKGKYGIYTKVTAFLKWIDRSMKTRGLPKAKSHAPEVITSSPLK
T1 sequence (P00742 41-179 partner limits assumed): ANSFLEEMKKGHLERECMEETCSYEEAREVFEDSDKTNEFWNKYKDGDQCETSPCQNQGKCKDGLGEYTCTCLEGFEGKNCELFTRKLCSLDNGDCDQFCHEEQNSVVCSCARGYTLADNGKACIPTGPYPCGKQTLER

One assay addresses T1, human factor Xa (Homo sapiens, UniProt P00742).
T1 construct: 25 μl human factor Xa (Enzyme Research Laboratories, Inc; South Bend, Ind.); purchased Enzyme Research Laboratories, Inc; South Bend, Ind
Nature of the assay: Factor Xa chromogenic assay (substrate S-2765). The assay is classed as biochemical. The following applies: Ki calculated from IC50 corrected for substrate competition; 25° C., 0.5 nM enzyme, 140 μM substrate S-2765; read-out: Ki(FXa), inhibition constant for inhibition of factor Xa. The procedure:
Purified enzymes are used in chromogenic assays.
The IC50 was determined by combining in appropriate wells of a Costar half-area microtiter plate 25 μl human factor Xa (Enzyme Research Laboratories, Inc.; South Bend, Ind.) in TBS-PEG; 40 μl 10% (v/v) DMSO in TBS-PEG (uninhibited control) or various concentrations of the compound to be tested diluted in 10% (v/v) DMSO in TBS-PEG; and substrate S-2765 (N(α)-benzyloxycarbonyl-D-Arg-Gly-L-Arg-p-nitroanilide; Kabi Pharmacia, Inc.; Franklin, Ohio) in TBS-PEG.
The assay was performed by pre-incubating the compound of formula I plus enzyme for 10 min. Then the assay was initiated by adding substrate to obtain a final volume of 100 μl. The initial velocity of chromogenic substrate hydrolysis was measured by the change in absorbance at 405 nm using a Bio-tek Instruments kinetic plate reader (Ceres UV900HDi) at 25° C. during the linear portion of the time course (usually 1.5 min after addition of substrate). The enzyme concentration was 0.5 nM and substrate concentration was 140 μM.
Take `CC(=N)N1CCC(CNC(=O)c2ccc(C)c(OCCc3ccc(Cl)cc3Cl)c2)CC1` [Example 12, 3-[2-(2,4-Dichloro-phenyl)-ethoxy]-N-[1-(10-imino-ethyl)-piperidin-4-ylmethyl]-4-methyl-benzamide; compound with trifluoro-acetic acid]: the Ki (in general, the dissociation constant of the complex between target and ligand, obtained from inhibition or displacement) is 0.14 µM.

As to `Cc1ccc(C(=O)NCC2CCN(C(=N)N)CC2)cc1OCCc1ccc(Cl)cc1Cl` [Example 13, N-(1-Carbamimidoyl-piperidin-4-ylmethyl)-3-[2-(2,4-dichloro-phenyl)-ethoxy]-4-methyl-benzamide; compound with trifluoro-acetic acid], the Ki was 0.173 µM.

Still in this assay, the particulars now being: read-out: Ki(FXa), inhibition constant for inhibition of factor Xa.
Turning to `COC(=O)[C@@H](NC(=O)c1cc(O)cc(OCCc2ccc(Cl)cc2Cl)c1)C1CCN(C(=N)N)CC1` [Example 1, (S)-(1-Carbamimidoyl-piperidin-4-yl)-{3-[2-(2,4-dichloro-phenyl)-ethoxy]-5-hydroxy-benzoylamino}-acetic acid methyl ester], the Ki was 2.12 µM.

Regarding `N=C(N)N1CCC(CNC(=O)c2cc(O)cc(OCCc3ccc(Cl)cc3Cl)c2)CC1` [Example 4], the Ki came out at 0.464 µM.

As to `COC(=O)[C@H](CC1CCN(C(=N)N)CC1)NC(=O)c1cc(O)c(C)c(OCCCc2ccc(Cl)cc2Cl)c1` [Example 6], the Ki is 2.28 µM.

On to `N=C(N)N1CCC(CNC(=O)c2cc(O)c(Br)c(OCCc3ccc(Cl)cc3Cl)c2)CC1` [Example 2, 4-Bromo-N-(1-carbamimidoyl-piperidin-4-ylmethyl)-3-[2-(2,4-dichloro-phenyl)-ethoxy]-5-hydroxy-benzamide], for which the Ki was 0.0137 µM.

Turning to `Cc1c(O)cc(C(=O)NCC2CCN(C(=N)N)CC2)cc1OCCc1ccc(Cl)cc1Cl` [Example 3, N-(1-Carbamimidoyl-piperidin-4-ylmethyl)-3-[2-(2,4-dichloro-phenyl)-ethoxy]-5-hydroxy-4-methyl-benzamide], the Ki stood at 0.0585 µM.
